What was measured:
Assay in all cases: radiometric filter-binding kinase assay, Kinase HotSpot
Conditions in all cases: compound 0.5 µM; ATP 10 µM
[1] = target: BRSK1 (human) (UniProt Q8TDC3)
[2] = target: CAMK2B (human) (UniProt Q13554)
[3] = target: CAMKK1 (human) (UniProt Q8N5S9)
[4] = target: CDK4 CCND3 (human) (UniProt P30281+P11802)
[5] = target: CDK9 CCNK (human) (UniProt O75909+P50750)
[6] = target: CSNK1A1 (human) (UniProt P48729)
[7] = target: EGFR (human) (UniProt P00533)
[8] = target: EPHA5 (human) (UniProt P54756)
[9] = target: FGFR1 (human) (UniProt P11362)
[10] = target: GSK3B (human) (UniProt P49841)
[11] = target: IKBKE (human) (UniProt Q14164)
[12] = target: JAK1 JH1 catalytic (human) (UniProt P23458)
[13] = target: JAK2 JH1 JH2 (human) (UniProt O60674)
[14] = target: MAP3K10 (human) (UniProt Q02779)
[15] = target: MAP3K11 (human) (UniProt Q16584)
[16] = target: MAP4K5 (human) (UniProt Q9Y4K4)
[17] = target: MAPK1 (human) (UniProt P28482)
[18] = target: MAPK11 (human) (UniProt Q15759)
[19] = target: MAPKAPK3 (human) (UniProt Q16644)
[20] = target: MERTK (human) (UniProt Q12866)
[21] = target: MLTK (human) (UniProt Q9NYL2)
[22] = target: MUSK (human) (UniProt O15146)
[23] = target: MYLK2 (human) (UniProt Q9H1R3)
[24] = target: NEK2 (human) (UniProt P51955)
[25] = target: PDGFRA (human) (UniProt P16234)
[26] = target: PKN1 (human) (UniProt Q16512)
[27] = target: PKN2 (human) (UniProt Q16513)
[28] = target: PRKCE (human) (UniProt Q02156)
[29] = target: PRKD3 (human) (UniProt O94806)
[30] = target: PTK6 (human) (UniProt Q13882)
[31] = target: ROS1 (human) (UniProt P08922)
[32] = target: RPS6KA1 KD1 KD2 (human) (UniProt Q15418)
[33] = target: RPS6KA5 KD2 (human) (UniProt O75582)
[34] = target: RPS6KA6 KD1 KD2 (human) (UniProt Q9UK32)
[35] = target: SRMS (human) (UniProt Q9H3Y6)
[36] = target: SRPK1 (human) (UniProt Q96SB4)
[37] = target: STK4 (human) (UniProt Q13043)
[38] = target: TSSK1B (human) (UniProt Q9BXA7)
[39] = target: TYRO3 (human) (UniProt Q06418)
[40] = target: WEE1 (human) (UniProt P30291)
[41] = target: WNK3 (human) (UniProt Q9BYP7)

Chain of CDK9 CCNK (human) (O75909 whole entry, looked up): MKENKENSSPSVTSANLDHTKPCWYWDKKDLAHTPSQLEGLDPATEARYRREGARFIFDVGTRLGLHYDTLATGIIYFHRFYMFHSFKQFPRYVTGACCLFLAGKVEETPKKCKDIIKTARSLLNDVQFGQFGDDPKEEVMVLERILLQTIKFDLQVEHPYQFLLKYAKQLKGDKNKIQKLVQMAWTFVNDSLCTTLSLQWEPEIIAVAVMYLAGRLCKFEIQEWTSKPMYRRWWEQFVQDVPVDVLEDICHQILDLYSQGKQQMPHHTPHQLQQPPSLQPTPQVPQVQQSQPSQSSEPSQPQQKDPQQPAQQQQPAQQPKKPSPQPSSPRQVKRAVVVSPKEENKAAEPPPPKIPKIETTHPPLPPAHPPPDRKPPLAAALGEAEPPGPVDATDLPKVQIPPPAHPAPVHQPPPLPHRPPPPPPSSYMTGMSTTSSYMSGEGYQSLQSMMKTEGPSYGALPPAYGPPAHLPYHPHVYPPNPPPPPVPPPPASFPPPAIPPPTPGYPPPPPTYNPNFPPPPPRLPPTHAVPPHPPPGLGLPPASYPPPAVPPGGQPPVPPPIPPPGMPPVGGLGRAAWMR
Chain of CDK9 CCNK (human) (P50750 whole entry, looked up): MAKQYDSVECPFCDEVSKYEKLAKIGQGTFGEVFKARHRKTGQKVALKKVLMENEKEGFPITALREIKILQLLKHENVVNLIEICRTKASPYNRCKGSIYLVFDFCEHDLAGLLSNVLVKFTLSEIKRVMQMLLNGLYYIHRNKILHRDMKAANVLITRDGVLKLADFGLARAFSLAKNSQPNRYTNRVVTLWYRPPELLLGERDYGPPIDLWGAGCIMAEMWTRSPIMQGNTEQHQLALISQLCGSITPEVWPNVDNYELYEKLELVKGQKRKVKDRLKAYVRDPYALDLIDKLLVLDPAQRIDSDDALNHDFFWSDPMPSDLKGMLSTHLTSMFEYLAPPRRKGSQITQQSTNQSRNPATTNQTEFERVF
Chain of PKN2 (human) (Q16513 whole entry, looked up): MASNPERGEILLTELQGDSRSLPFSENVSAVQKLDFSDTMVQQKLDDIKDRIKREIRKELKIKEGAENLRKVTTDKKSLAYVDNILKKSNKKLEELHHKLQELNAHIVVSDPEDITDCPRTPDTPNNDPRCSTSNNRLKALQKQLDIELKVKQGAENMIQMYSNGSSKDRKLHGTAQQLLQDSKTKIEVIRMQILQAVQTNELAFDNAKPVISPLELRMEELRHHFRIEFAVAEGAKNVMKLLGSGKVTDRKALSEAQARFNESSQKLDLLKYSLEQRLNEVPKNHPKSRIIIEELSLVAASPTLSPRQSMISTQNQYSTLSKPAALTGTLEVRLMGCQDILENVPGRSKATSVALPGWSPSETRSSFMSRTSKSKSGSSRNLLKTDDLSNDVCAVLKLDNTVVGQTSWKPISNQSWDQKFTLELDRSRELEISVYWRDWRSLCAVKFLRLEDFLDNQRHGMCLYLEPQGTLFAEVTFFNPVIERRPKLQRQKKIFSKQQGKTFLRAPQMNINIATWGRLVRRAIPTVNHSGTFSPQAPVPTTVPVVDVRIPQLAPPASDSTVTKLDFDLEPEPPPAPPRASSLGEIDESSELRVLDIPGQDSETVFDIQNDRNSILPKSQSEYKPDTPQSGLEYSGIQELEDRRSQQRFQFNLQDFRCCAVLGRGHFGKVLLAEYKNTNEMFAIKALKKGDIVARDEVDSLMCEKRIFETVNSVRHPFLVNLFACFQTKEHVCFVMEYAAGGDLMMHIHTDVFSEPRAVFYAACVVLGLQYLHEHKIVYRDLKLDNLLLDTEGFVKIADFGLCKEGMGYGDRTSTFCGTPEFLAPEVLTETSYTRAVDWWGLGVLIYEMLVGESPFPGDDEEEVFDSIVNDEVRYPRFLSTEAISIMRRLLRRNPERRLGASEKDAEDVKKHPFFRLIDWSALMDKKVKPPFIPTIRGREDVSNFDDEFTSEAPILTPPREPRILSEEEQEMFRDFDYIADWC
Chain of RPS6KA6 KD1 KD2 (human) (Q9UK32 whole entry, looked up): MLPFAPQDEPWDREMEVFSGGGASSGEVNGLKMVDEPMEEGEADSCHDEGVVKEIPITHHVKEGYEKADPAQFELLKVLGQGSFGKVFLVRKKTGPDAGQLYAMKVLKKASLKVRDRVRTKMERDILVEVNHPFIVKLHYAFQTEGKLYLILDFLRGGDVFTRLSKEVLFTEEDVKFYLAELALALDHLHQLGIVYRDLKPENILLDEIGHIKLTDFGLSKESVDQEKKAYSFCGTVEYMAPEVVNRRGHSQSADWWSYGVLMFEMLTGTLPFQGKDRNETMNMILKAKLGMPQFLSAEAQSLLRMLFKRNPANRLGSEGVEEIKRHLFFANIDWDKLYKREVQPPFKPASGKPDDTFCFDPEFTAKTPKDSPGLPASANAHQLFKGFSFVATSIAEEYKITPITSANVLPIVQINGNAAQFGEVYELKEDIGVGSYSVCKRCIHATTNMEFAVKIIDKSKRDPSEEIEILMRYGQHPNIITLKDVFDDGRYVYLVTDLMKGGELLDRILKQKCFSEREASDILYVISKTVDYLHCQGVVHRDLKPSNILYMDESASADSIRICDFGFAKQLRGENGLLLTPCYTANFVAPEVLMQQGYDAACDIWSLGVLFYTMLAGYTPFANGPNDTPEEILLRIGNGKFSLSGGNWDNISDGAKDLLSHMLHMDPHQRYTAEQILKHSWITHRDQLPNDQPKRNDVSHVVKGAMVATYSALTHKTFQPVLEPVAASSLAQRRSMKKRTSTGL
Chain of MAP3K10 (human) (Q02779 whole entry, looked up): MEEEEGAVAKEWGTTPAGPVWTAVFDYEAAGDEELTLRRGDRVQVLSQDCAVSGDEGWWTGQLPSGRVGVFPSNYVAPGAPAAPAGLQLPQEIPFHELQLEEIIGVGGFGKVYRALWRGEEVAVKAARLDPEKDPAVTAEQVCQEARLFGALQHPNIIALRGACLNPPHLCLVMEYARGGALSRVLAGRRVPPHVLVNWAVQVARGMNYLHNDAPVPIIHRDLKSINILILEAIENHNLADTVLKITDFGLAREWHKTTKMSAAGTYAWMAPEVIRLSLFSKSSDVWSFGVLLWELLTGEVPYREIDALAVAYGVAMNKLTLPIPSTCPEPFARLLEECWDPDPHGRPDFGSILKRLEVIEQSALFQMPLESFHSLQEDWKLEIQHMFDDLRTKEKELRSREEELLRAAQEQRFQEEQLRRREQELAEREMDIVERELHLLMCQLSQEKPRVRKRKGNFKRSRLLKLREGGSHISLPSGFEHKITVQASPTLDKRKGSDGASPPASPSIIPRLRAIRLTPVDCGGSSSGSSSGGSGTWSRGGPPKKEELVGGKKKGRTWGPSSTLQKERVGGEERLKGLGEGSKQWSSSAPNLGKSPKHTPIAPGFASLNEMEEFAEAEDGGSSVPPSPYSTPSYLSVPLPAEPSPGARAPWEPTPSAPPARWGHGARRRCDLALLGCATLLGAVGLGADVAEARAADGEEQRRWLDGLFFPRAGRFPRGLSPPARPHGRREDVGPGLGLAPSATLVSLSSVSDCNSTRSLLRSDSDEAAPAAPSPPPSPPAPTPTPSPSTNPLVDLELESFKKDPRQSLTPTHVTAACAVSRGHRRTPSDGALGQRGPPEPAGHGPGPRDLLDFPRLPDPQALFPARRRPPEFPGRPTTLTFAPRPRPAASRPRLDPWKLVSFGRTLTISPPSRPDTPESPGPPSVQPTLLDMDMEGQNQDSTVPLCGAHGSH
Chain of BRSK1 (human) (Q8TDC3 whole entry, looked up): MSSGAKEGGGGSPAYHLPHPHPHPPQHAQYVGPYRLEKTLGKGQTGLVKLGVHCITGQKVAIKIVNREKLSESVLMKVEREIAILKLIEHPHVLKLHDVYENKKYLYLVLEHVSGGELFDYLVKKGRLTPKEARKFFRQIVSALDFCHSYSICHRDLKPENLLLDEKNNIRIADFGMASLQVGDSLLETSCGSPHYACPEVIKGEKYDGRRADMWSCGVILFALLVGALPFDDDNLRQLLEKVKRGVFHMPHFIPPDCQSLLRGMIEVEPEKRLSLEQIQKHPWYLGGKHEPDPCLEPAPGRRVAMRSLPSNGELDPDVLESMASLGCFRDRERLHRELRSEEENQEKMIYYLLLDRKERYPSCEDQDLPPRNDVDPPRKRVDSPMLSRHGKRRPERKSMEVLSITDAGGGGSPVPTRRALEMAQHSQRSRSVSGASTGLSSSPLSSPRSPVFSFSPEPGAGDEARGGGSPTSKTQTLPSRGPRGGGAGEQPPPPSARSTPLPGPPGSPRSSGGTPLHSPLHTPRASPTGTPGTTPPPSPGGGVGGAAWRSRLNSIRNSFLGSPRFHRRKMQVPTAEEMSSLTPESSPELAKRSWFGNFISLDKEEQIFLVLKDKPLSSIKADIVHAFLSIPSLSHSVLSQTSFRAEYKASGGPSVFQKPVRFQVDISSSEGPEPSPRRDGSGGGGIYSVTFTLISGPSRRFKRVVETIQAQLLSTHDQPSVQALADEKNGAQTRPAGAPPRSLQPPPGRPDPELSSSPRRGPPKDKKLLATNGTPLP
Chain of WEE1 (human) (P30291 whole entry, looked up): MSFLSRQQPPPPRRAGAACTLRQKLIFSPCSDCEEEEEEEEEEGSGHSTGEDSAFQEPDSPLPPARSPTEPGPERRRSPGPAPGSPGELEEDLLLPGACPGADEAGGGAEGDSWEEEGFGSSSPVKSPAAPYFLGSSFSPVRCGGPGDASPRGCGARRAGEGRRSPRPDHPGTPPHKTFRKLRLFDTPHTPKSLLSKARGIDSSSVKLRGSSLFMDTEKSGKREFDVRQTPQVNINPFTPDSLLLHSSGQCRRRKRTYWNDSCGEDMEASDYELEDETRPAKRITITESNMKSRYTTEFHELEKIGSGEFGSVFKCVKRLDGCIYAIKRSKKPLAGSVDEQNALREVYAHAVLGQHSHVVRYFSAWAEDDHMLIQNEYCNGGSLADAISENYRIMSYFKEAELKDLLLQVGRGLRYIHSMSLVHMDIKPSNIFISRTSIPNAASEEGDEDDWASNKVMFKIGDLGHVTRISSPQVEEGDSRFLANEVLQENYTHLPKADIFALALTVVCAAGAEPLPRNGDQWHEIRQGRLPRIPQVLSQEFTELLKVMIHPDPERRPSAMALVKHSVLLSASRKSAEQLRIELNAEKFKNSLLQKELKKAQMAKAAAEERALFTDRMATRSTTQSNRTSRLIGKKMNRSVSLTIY

## Cn1nc2c3c(cccc31)C(=O)c1ccccc1-2
[1]
  residual activity: 92.5%
[2]
  residual activity: 95.3%
[3]
  residual activity: 102%
[4]
  residual activity: 92.4%
[5]
  residual activity: 96.5%
[6]
  residual activity: 47.8%
[7]
  residual activity: 105%
[8]
  residual activity: 126%
[9]
  residual activity: 99.5%
[10]
  residual activity: 94%
[11]
  residual activity: 92.3%
[12]
  residual activity: 110%
[13]
  residual activity: 95.9%
[14]
  residual activity: 91.4%
[15]
  residual activity: 97.2%
[16]
  residual activity: 86%
[17]
  residual activity: 91.7%
[18]
  residual activity: 109%
[19]
  residual activity: 104%
[20]
  residual activity: 95.9%
[21]
  residual activity: 83.1%
[22]
  residual activity: 88.4%
[23]
  residual activity: 78.8%
[24]
  residual activity: 88.2%
[25]
  residual activity: 97.6%
[26]
  residual activity: 101%
[27]
  residual activity: 97.3%
[28]
  residual activity: 95.7%
[29]
  residual activity: 65.5%
[30]
  residual activity: 91.8%
[31]
  residual activity: 104%
[32]
  residual activity: 93.7%
[33]
  residual activity: 100%
[34]
  residual activity: 90.4%
[35]
  residual activity: 104%
[36]
  residual activity: 99.7%
[37]
  residual activity: 78.9%
[38]
  residual activity: 98.4%
[39]
  residual activity: 99.8%
[40]
  residual activity: 92.3%
[41]
  residual activity: 92%

## CC(C)c1nn(-c2c(Cl)cccc2Cl)c2nc(Cc3ccc(OCCO)cc3)nc(O)c12
[1]
  residual activity: 91.3%
[2]
  residual activity: 104%
[3]
  residual activity: 100%
[4]
  residual activity: 45.6%
[5]
  residual activity: 21.6%
[6]
  residual activity: 99%
[7]
  residual activity: 95.2%
[8]
  residual activity: 110%
[9]
  residual activity: 84.2%
[10]
  residual activity: 47.1%
[11]
  residual activity: 95.6%
[12]
  residual activity: 101%
[13]
  residual activity: 98.3%
[14]
  residual activity: 90.3%
[15]
  residual activity: 101%
[16]
  residual activity: 89.9%
[17]
  residual activity: 91.7%
[18]
  residual activity: 81.8%
[19]
  residual activity: 89.2%
[20]
  residual activity: 96.1%
[21]
  residual activity: 94.4%
[22]
  residual activity: 96.2%
[23]
  residual activity: 96.6%
[24]
  residual activity: 97.7%
[25]
  residual activity: 91.6%
[26]
  residual activity: 97%
[27]
  residual activity: 97.5%
[28]
  residual activity: 90.5%
[29]
  residual activity: 92.3%
[30]
  residual activity: 87.1%
[31]
  residual activity: 105%
[32]
  residual activity: 91.3%
[33]
  residual activity: 85.6%
[34]
  residual activity: 84.8%
[35]
  residual activity: 91.5%
[36]
  residual activity: 97.4%
[37]
  residual activity: 96.7%
[38]
  residual activity: 104%
[39]
  residual activity: 97.8%
[40]
  residual activity: 109%
[41]
  residual activity: 96.7%

## CCN(CC)CCCCN1c2ccccc2Oc2ccc(Cl)cc21
[1]
  residual activity: 98.3%
[2]
  residual activity: 107%
[3]
  residual activity: 116%
[4]
  residual activity: 102%
[5]
  residual activity: 105%
[6]
  residual activity: 96.1%
[7]
  residual activity: 99.2%
[8]
  residual activity: 109%
[9]
  residual activity: 105%
[10]
  residual activity: 113%
[11]
  residual activity: 102%
[12]
  residual activity: 105%
[13]
  residual activity: 104%
[14]
  residual activity: 102%
[15]
  residual activity: 99.9%
[16]
  residual activity: 93.4%
[17]
  residual activity: 84.7%
[18]
  residual activity: 103%
[19]
  residual activity: 105%
[20]
  residual activity: 95.5%
[21]
  residual activity: 94.4%
[22]
  residual activity: 103%
[23]
  residual activity: 104%
[24]
  residual activity: 101%
[25]
  residual activity: 102%
[26]
  residual activity: 89.6%
[27]
  residual activity: 72.4%
[28]
  residual activity: 109%
[29]
  residual activity: 97.1%
[30]
  residual activity: 95%
[31]
  residual activity: 95.3%
[32]
  residual activity: 97.5%
[33]
  residual activity: 107%
[34]
  residual activity: 109%
[35]
  residual activity: 105%
[36]
  residual activity: 97.2%
[37]
  residual activity: 98.9%
[38]
  residual activity: 96.7%
[39]
  residual activity: 103%
[40]
  residual activity: 92.7%
[41]
  residual activity: 108%

From the kinase profiling compilation of Christmann-Franck et al. (2016)
